Data: patent publication US8658131B2, “Compounds comprising 4-benzoylpiperidine as a sigma-1-selective ligand” (Washington University, priority 2010, dated 2014)
Like-named read-outs stand apart in the source and are kept apart here.

Columns and labels:
[1] = biological target: T1, σ2 receptor (Rattus norvegicus, UniProt Q5U3Y7); test: σ2 receptor binding assay, [3H]DTG, rat liver membrane homogenates; design: conducted using rat liver membrane homogenates; from tissue; host or cells: rat liver membrane homogenates
T1 sequence (Q5U3Y7 1-176): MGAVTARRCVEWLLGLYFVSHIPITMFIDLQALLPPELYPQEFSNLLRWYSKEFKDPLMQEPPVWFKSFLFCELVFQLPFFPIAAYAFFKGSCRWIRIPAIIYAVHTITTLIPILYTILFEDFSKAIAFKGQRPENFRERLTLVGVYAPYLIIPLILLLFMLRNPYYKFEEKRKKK
Description: The compounds were dissolved in DMF, DMSO, or ethanol, and then diluted in 50 mM Tris-HCl buffer containing 150 mM NaCl and 100 mM EDTA at pH 7.4, prior to performing the σ1 and σ2 receptor binding assays.
The incubation time was 2 h at room temperature. Nonspecific binding was determined from samples that contained 10 μM of cold haloperidol. All other procedures were identical to those described for the σ1 receptor binding assay above.
Ki values were calculated using the method of Cheng and Prusoff and are presented as the mean (±1 SEM).

[2] = biological target: T2, σ1 receptor (Cavia porcellus, UniProt Q60492); test: σ1 receptor binding assay, (+)-[3H]pentazocine, guinea pig brain membranes; conditions: Table 4, Ki values of VAChT specific compounds; tissue not given; read-out: Sigma-1 σ1
T2 construct: using guinea pig brain membrane homogenates; from tissue; host or cells: guinea pig brain membrane homogenates
T2 sequence (Q60492 whole entry): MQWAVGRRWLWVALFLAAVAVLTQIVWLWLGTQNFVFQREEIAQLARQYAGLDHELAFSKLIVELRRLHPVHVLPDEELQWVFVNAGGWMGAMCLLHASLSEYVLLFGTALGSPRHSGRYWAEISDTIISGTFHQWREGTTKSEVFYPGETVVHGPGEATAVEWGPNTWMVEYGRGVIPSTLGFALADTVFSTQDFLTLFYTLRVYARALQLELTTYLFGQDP

[3] = biological target: T3, human vesicular acetylcholine transporter (VAChT) (Homo sapiens, UniProt Q16572); test: VAChT binding assay, (−)-[3H]vesamicol, human VAChT expressed in PC12 cells; conditions: Table 4, Ki values of VAChT specific compounds; source not given; read-out: VAChT
T3 construct: expressed in transfected cells; host or cells: PC12 A123.7 cells (crude extract / homogenized, partially clarified cells)
T3 sequence (Q16572 1-532): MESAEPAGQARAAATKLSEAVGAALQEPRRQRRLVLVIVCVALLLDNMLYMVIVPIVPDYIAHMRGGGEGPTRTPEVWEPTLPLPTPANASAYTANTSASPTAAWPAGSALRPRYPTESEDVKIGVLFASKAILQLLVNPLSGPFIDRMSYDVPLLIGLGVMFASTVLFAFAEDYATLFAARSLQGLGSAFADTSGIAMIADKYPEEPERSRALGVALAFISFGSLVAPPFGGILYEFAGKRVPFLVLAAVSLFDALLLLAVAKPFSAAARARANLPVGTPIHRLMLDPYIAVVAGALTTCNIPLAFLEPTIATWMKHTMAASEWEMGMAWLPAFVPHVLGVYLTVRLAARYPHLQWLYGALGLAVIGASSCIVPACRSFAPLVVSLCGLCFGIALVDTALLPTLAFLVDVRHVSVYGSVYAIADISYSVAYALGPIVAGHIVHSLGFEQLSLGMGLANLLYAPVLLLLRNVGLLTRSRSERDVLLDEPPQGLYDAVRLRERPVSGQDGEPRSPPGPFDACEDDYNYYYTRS

[4] = Table 4, Ki values of VAChT specific compounds, tissue not given, read-out: Sigma-2 σ1

Ki [1, 4]	Ki [2]	Ki [3]	Molecule	Ki ([1]; homogenates of rat liver, mean ± SEM, read-out: σ2 (Ki))
> 10 µM			COc1ccc(C(=O)N2CCC(O)C(N3CCC(C(=O)c4ccc(F)cc4)CC3)C2)cc1 (stereo not drawn) [WW-1-35]	
3.95 ± 0.278 µM			O=C(c1ccc(F)cc1)C1CCN(C2CN(C(=O)c3ccccc3)CCC2O)CC1 (stereo not drawn) [WW-1-39]	
4.85 ± 0.649 µM			COc1ccc(C(=O)C2CCN(C3CN(C(=O)c4ccccc4)CCC3O)CC2)cc1 (stereo not drawn) [WW-1-67]	
2.6 ± 0.363 µM			COc1ccc(C(=O)C2CCN(C3CN(C(=O)c4ccc(F)cc4)CCC3O)CC2)cc1 (stereo not drawn) [WW-1-107]	
8.54 ± 1.9 µM	0.208 ± 0.053 µM	0.0355 ± 0.0111 µM	COc1ccc(C(=O)C2CCN(C3CN(Cc4ccccc4)CCC3O)CC2)cc1 (stereo not drawn) [WW-1-109]	
1.38 ± 0.135 µM		8.7 ± 1.62 µM	O=C(c1ccc(F)cc1)C1CCN(C2CN(C(=O)c3ccc(F)cc3)CCC2O)CC1 (stereo not drawn) [WW-1-123]	
24.3 ± 1.91 µM			COc1ccc(C(=O)C2CCN(C3CN(C(=O)c4cccnc4)CCC3O)CC2)cc1 (stereo not drawn) [WW-III-13]	
24.4 ± 3.63 µM			COc1ccc(C(=O)C2CCN(C3CN(C(=O)c4ccc(C)s4)CCC3O)CC2)cc1 (stereo not drawn) [WW-III-17]	
6.38 ± 1 µM			COc1ccc(C(=O)C2CCN(C3CN(C(=O)c4cccs4)CCC3O)CC2)cc1 (stereo not drawn) [WW-III-21]	
17.1 ± 3.86 µM	2.23 ± 0.168 µM	0.107 ± 0.0111 µM	COc1ccc(C(=O)C2CCN(C3CN(Cc4cccnc4)CCC3O)CC2)cc1 (stereo not drawn) [WW-III-25]	
4.22 ± 0.205 µM			Cc1ccsc1C(=O)N1CCC(O)C(N2CCC(C(=O)c3ccc(F)cc3)CC2)C1 (stereo not drawn) [WW-III-39]	
16.4 ± 1.48 µM			Cc1ccc(C(=O)N2CCC(O)C(N3CCC(C(=O)c4ccc(F)cc4)CC3)C2)s1 (stereo not drawn) [WW-III-41]	
4.05 ± 0.244 µM			O=C(c1ccc(F)cc1)C1CCN(C2CN(C(=O)c3cccs3)CCC2O)CC1 (stereo not drawn) [WW-III-43]	
15.5 ± 2.17 µM		0.807 ± 0.139 µM	O=C(c1ccc(F)cc1)C1CCN(C2CN(C(=O)c3cccnc3)CCC2O)CC1 (stereo not drawn) [WW-III-45]	
13 ± 2.63 µM	1.16 ± 0.128 µM	0.237 ± 0.0414 µM	O=C(c1ccc(F)cc1)C1CCN(C2CN(Cc3cccnc3)CCC2O)CC1 (stereo not drawn) [WW-III-47]	
			(4′-Hydroxy-1′-(pyridin-4-ylmethyl)-[1,3′-bipiperidin]-4-yl)(4-methoxyphenyl)methanone [Compound 16h]	17.1 ± 3.86 µM
